Test results: ChEMBL document CHEMBL1123322, “Muscarinic ganglionic stimulants: conformationally restrained analogues related to [4-[[N-(3-chlorophenyl)carbamoyl]oxy]-2-butynyl]trimethylammonium chloride” (1986)
Calls of active or inactive are those of the source. The rule behind the calls is not given here.

Experiments:
Assay type in all cases: functional
[1] = organism: Rattus norvegicus; assay: Compound was tested for the production of depressor effects in rat
[2] = target: T1, Muscarinic acetylcholine receptor M1 (Rattus norvegicus) (UniProt P08482); assay: Muscarinic M1 receptor ganglion-stimulating activity as pressor responses in pithed rats; Inactive
T1 sequence (whole entry): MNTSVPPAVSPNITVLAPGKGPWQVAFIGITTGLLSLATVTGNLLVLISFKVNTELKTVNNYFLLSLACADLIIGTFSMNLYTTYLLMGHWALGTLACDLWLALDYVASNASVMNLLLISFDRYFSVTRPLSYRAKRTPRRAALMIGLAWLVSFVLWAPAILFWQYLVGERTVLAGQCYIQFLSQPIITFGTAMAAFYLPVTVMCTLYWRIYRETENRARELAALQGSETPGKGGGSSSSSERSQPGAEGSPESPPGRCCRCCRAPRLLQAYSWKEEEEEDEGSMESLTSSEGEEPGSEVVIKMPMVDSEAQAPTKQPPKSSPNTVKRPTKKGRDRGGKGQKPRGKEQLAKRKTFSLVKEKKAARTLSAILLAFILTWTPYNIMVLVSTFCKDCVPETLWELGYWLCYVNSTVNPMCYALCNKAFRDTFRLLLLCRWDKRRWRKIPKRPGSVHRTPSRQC

[3] = organism: Rattus norvegicus; assay: Compound was tested for the production of piperizine sensitive pressor response
[4] = organism: Rattus norvegicus; assay: Compound was tested for the production of […] sensitive pressor response; Range 20-30 mmHg

SMILES | Activity [1] | Activity [2] | Activity [3] | Mean arterial blood pressure [4]
C[N+]1(C)CCC=C(COC(=O)Nc2cccc(Cl)c2)C1.[I-] | >2 µM/kg | inactive |  | 
C[N+]1(C)CC=C(COC(=O)Nc2cccc(Cl)c2)CC1.Cc1ccc(S(=O)(=O)[O-])cc1 | >2 µM/kg | inactive | 0.1 µM/kg | 
Cc1cccc(NC(=O)OCC2C=CCN(C)C2)c1 (stereo not given) | >2 µM/kg | inactive |  | 
C[N+]1(C)CCC(COC(=O)Nc2cccc(Cl)c2)CC1 |  |  |  | 20 mmHg
CN1CCC(COC(=O)Nc2cccc(Cl)c2)CC1 | 0.1 µM/kg |  |  | 
CN1CCC=C(COC(=O)Nc2ccc(Cl)cc2)C1 | >2 µM/kg | inactive |  | 
C[N+]1(C)CC=C(COC(=O)Nc2ccc(Cl)cc2)CC1.[Br-] |  |  | 0.1 µM/kg | 
CN1CC=C(COC(=O)Nc2cccc(Cl)c2)CC1 | >2 µM/kg | inactive |  | 
CN1CCC=C(COC(=O)Nc2ccccc2Cl)C1 | >2 µM/kg | inactive |  | 
CN1CC=C(COC(=O)Nc2cccc(Cl)c2)C1 |  |  |  | 20 mmHg
CN1CC=C(COC(=O)Nc2ccc(Cl)cc2)CC1 | >2 µM/kg | inactive |  | 
C[N+]1(C)CCC=C(COC(=O)Nc2ccc(Cl)cc2)C1.[I-] | 0.1 µM/kg |  |  | 
C[N+]1(C)CC=C(COC(=O)Nc2cccc(Cl)c2)C1 | 3 µM/kg |  |  | 
Cc1cccc(NC(=O)OCC2=CCN(C)CC2)c1 | >2 µM/kg | inactive |  | 
CN1CCC=C(COC(=O)Nc2cccc(Cl)c2)C1 | >2 µM/kg | inactive |  | 
